From patent US20210238172
Like-named read-outs stand apart in the source and are kept apart here.

Conditions: amide bond, HATU/DIEA, NMP, 2 steps

| Substance | ring closure, yield after HPLC (21-membered ring, 92.4 mM, 80.0 °C) [%] | ring closure, yield after HPLC (22-membered ring, 68.9 mM, 140.0 °C) [%] |
| --- | --- | --- |
| 8-Ethyl-10,18-dimethyl-7,20-dioxo-6,7,8,11,14,15,20,21,28,29,30,31-dodecahydrobenzo[4,5]imidazo[1,2-a]benzo[4,5]imidazo[2,1-p]dipyrazolo[5,1-e:4′,3′-l][1,3,6,15,17]pentaazacyclohenicosine-3,24-dicarboxamide | 1.7 |  |
| 8-ethyl-10,18,30-trimethyl-7,20-dioxo-7,8,11,12,13,14,15,20,21,28,29,30,31,32-tetradecahydro-benzo[4,5]imidazo[2,1-b]benzo[4,5]imidazo[1,2-i]dipyrazolo[5,1-m:4′,3′-t][1,3,6,9,11,14]hexaazacyclodocosine-3,24-dicarboxamide |  | 4.56 |
